Consider three compounds from US20160362744A1, “Biomarkers of Mineralocorticoid Receptor Activation” (INSERM (Institut National de la Sante et de la Recherche …, priority 2008, published 2016).

“Also recorded” adds a separate entry of the source.

For series [1], the target named is T1, rat MR (Rattus norvegicus, UniProt P22199).
T1 construct: expressed in transfected cells; host or cells: rat H9C2 cardiomyocyte cells (H9-C2/MR)
T1 sequence (P22199 1-981): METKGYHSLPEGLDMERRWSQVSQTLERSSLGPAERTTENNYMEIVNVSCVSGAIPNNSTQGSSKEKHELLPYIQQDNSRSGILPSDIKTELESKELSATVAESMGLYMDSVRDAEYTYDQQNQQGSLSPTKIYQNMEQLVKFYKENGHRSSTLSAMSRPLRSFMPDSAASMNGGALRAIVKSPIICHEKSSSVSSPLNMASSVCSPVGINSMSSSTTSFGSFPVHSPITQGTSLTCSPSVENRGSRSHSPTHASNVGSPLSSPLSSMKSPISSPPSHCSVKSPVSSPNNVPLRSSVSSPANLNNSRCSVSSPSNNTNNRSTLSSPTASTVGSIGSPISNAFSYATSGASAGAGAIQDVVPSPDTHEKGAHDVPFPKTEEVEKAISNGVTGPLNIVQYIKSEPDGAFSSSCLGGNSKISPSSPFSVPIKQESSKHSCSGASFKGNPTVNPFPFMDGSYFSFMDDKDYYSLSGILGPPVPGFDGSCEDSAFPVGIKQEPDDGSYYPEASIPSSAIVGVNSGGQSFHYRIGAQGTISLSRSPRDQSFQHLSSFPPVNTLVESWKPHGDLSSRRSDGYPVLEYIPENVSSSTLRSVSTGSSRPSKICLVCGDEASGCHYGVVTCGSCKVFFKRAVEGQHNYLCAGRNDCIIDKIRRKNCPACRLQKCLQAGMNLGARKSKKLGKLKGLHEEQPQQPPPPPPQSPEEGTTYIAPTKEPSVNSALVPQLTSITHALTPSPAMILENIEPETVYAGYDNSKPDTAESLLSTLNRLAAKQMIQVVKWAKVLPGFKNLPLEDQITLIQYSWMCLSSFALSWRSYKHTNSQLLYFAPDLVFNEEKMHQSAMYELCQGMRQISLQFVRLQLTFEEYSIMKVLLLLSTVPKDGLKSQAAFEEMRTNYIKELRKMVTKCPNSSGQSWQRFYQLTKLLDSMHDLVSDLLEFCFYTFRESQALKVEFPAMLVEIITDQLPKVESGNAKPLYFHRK
Description: Expression of NGAL mRNA (Q-PCR) in rat cardiomyocyte H9C2 cells stably expressing rat MR. Format: cell-based. As to conditions: for Lipocalin2/NGAL expression, time-course: 10^−8M aldosterone. On the procedure: Expression of NGAL in a Cellular Model of Rat Cardiomyocyte (H9C2 Cells) Stably Overexpressing with Rat MR
Quantitative NGAL mRNA expression was analyzed by quantitative PCR (Q-PCR, Light Cycler, Biorad) using forward 5′-[…]-3′ (SEQ ID NO:3) and reverse 5′-[…]-3′ (SEQ ID NO:4) primers on 25 μl of RT-PCR (using the qPCR Core kit for Sybr Green I from Eurogentec) prepared using 2 μg DNA-free total RNA extracted from rat H9-C2/MR cells treated with various concentrations of aldosterone or 10^−8M corticosterone or 10^−6 M MR antagonist RU 28318 or GR antagonist RU 486, alone or in combination.

In series [2] the target is T2, MR (Mus musculus, UniProt Q8VII8).
T2 construct: from tissue; host or cells: living mice (heart, plasma)
T2 sequence (Q8VII8 1-978): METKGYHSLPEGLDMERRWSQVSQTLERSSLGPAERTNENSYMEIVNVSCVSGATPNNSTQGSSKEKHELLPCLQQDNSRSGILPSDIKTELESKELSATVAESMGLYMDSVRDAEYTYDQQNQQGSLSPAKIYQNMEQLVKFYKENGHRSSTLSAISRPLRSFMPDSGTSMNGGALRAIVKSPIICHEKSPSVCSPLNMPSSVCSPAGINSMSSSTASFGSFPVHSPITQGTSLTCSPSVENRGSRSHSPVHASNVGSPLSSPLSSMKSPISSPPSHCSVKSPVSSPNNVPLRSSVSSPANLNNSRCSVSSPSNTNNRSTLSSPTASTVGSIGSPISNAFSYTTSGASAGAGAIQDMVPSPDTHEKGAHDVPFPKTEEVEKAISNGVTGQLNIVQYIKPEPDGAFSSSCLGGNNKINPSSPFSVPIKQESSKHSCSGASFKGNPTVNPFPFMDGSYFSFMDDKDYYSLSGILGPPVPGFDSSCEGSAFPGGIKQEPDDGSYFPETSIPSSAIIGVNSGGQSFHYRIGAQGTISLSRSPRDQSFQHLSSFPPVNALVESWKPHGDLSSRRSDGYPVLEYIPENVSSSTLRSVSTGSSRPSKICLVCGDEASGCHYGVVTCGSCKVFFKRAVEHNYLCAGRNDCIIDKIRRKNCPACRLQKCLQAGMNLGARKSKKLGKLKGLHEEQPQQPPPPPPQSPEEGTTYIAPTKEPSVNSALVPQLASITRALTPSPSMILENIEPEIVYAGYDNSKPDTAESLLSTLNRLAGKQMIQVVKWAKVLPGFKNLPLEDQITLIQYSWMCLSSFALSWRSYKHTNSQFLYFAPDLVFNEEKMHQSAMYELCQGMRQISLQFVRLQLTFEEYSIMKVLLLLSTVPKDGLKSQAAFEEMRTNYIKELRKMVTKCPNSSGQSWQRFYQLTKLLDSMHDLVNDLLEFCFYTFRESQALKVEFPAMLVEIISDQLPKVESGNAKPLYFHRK
Description: NGAL expression in uninephrectomized mice with aldosterone infusion and 1% salt (aldo/salt model). Format: in vivo. As to conditions: 3 weeks. How it is done:
Quantitative NGAL mRNA expression was analyzed by quantitative PCR (Q-PCR, Light Cycler, Biorad) using forward 5′-[…]-3′ (SEQ ID NO:1) and Reverse 5′-[…]-3′ (SEQ ID NO:2) primers on 25 μl of RT-PCR (using the qPCR Core kit for Sybr Green I from Eurogentec) prepared using 2 μg DNA-free total RNA extracted from the heart of one, two and three mo-old MR transgenic mice and compared to matched littermates, as well as two mo-old GR transgenic mice (and respective control littermates). Protein expression of NGAL was analyzed in cardiac protein extracts from two mo-old MR mice using a specific NGAL antibody (AF1857, R&D Systems). […]
Quantitative NGAL mRNA expression was also analyzed by Q-PCR in the heart of mice with uninephrectomy and treated with aldosterone infusion (60 μg/kg/j, 0.25 μl/h ALZET minipumps) and 1% salt in the drinking water for 3 weeks (as compared to uninephrectomized-only control mice), and in thoracic aorta from 9 months-old mice with conditional overexpression of the human MR in the endothelium only obtained after appropriate breeding of the MR transgenic mice described above with an endothelial-specific transactivator mice (provided by L. E. Benjamine, Harvard, USA) (Sun et al., 2005) that allowed conditional expression of hMR in the endothelium only. […]

For series [3], the target named is T1, rat MR. Briefly: Expression of Serpina3 mRNA (Q-PCR) in rat cardiomyocyte H9C2 cells stably overexpressing rat MR. Format: cell-based. As to conditions: for serpina3 induction, time course: Aldosterone 10 nM. On the procedure:
Expression of Serpina3 in a Cellular Model of Rat Cardiomyocyte (H9C2 Cells) Stably Overexpressing with Rat MR
Quantitative Serpina3 mRNA expression was analyzed by quantitative PCR (Q-PCR, Light Cycler, Biorad) using forward 5′-[…]-3′ (SEQ ID NO:7) and reverse 5′-[…]-3′ (SEQ ID NO:8) primers on 25 μl of RT-PCR (using the qPCR Core kit for Sybr Green I from Eurogentec) prepared using 2 μg DNA-free total RNA extracted from rat H9-C2/MR cells treated with various concentrations of aldosterone or 10^−8M corticosterone or 10^−6 M MR antagonist RU 28318, alone or in combination.

Series [4] deals with T2, MR. Description: Plasma NGAL (ELISA) in db/db mouse model of type II diabetes treated with MR antagonist. Format: in vivo, mice. In general terms: In an ELISA, binding on a coated surface is turned into a signal by an enzyme label.
Series [5] deals with T3, MR (Rattus norvegicus, UniProt P22199).
T3 construct: from tissue; host or cells: living rats (cardiac left ventricle, plasma)
T3 sequence (P22199 1-981): T1 sequence (P22199 1-981)
Briefly: Serpina3 mRNA (Q-PCR) in left ventricle of rats with cachexia-induced heart failure. Format: in vivo. As to conditions: 50 mg/Kg/day. How it is done: Expression of Serpina3 in a Rat Model of Heart Failure Induced by Cachexia. Effect of Pharmacological MR Antagonism with Spironolactone
Quantitative Serpina3 mRNA expression was analyzed by quantitative PCR (Q-PCR, Light Cycler, Biorad) using forward 5′-[…]-3′ (SEQ ID NO:7) and reverse 5′-[…]-3′ (SEQ ID NO:8) primers on 25 μl of RT-PCR (using the qPCR Core kit for Sybr Green I from Eurogentec) prepared using 2 μg DNA-free total RNA extracted from the left ventricles

The target of series [6] is T4, mineralocorticoid receptor (Homo sapiens, UniProt P08235).
T4 sequence (P08235 1-984): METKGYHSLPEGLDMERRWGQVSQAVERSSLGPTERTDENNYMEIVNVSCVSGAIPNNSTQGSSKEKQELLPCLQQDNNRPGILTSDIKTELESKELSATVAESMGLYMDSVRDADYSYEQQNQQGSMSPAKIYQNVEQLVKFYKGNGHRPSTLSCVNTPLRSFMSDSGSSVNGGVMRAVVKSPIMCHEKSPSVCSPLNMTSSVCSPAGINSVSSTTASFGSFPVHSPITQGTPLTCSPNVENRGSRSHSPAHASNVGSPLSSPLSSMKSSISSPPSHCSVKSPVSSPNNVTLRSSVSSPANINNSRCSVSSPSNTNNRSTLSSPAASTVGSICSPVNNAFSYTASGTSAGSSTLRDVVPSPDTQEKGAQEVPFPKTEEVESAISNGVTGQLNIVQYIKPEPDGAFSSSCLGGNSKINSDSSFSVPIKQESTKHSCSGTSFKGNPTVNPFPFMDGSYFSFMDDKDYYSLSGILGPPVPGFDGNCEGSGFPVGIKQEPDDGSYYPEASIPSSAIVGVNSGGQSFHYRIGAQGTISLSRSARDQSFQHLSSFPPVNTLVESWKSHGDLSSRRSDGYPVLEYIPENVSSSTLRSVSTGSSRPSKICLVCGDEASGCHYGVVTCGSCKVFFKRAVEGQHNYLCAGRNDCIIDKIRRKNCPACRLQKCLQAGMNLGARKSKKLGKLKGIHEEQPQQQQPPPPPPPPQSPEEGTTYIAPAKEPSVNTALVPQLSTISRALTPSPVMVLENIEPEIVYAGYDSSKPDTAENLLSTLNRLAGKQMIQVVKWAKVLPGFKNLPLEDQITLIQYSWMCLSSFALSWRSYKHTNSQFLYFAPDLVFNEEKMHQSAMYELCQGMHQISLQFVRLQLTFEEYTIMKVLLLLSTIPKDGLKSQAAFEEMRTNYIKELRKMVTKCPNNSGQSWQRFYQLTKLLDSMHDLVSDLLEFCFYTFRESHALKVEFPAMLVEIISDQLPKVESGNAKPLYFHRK
Set-up: host or cells: patients. As to conditions: RALES, severe heart failure, on standard therapy; cited from earlier work.

Series [7] addresses T3, MR. Briefly: Lipocalin2/NGAL in heart and plasma of rats with cachexia-induced heart failure. Format: in vivo.
The conditions of series [8]: patients receiving this MR antagonist; cited from earlier work.

Turning to `C[C@]12CCC(=O)C=C1CC[C@@H]1[C@@H]2[C@@H](O)C[C@]2(C=O)[C@@H](C(=O)CO)CC[C@@H]12` [aldosterone], the Lipocalin2/NGAL expression entry on rat MR [1] (10^−8M aldosterone for 24 h) is given as “increased”. For the same compound, the “Lipocalin2/NGAL expression, time-course” value was “induced” at rat MR [1] (after 24 h) and “remained sustained” on rat MR [1] (after 48 h). Further, the “Lipocalin2/NGAL expression, dose-response” value on rat MR [1] (increasing concentrations of aldosterone) is “stimulated by increasing concentrations”. Further, the “Lipocalin2/NGAL expression in the heart” value at MR [2] (60 μg/kg/j infusion, quantitative PCR) is listed as “increased”. Moreover, the “plasma levels of lipocalin2/NGAL” value on MR [2] (ELISA) is reported as “increased”. In addition, the “expression of serpina3 (in words)” value at rat MR [3] (H9C2/MR cells, 1 nM aldosterone for 24 h) is recorded as “increased”. The “Serpina3 expression (in words)” value on rat MR [3] (H9C2/MR cells, 10 nM aldosterone, 24 h exposure) is given as “highly induced”. Moreover, the “serpina3 induction, time course” value is “induced” at rat MR [3] (H9C2/MR cells, after 10 hours) and 15 × at rat MR [3] (H9C2/MR cells, after 24 h). Besides, the “Serpina3 induction, dose-response” value at rat MR [3] (H9C2/MR cells, aldosterone, starting with 1 nM) is “dose-dependent; also recorded: Concentration dependent induction”. The “SERPINA3 mRNA induction” value at rat MR [3] (H9C2/MR+ cells, aldosterone 1 nM for 24 hrs) is given as “about 8 fold”.

Take `C[C@]12CCC(=O)C=C1C=C[C@@H]1[C@@H]2CC[C@@]2(C)[C@H]1CC[C@@]2(O)CCC(=O)O` [canrenoate]: at MR [4] (control mice, 17 weeks treatment), the “Effect on plasma levels of lipocalin2/NGAL in control mice” value was “no effect”. On MR [4] (db/db mice, 17 weeks in vivo treatment, 100 mg/Kg/day in drinking water), the “Effect on increase in plasma levels of lipocalin2/NGAL in db/db mice” value is given as “prevented”.

`CC(=O)S[C@@H]1CC2=CC(=O)CC[C@]2(C)[C@H]2CC[C@@]3(C)[C@@H](CC[C@@]34CCC(=O)O4)[C@H]12` [spironolactone]: on MR [5], the “Effect on induction of cardiac Serpina3 mRNA” value was “fully prevented”. For the same compound, the “mortality and incidence of hospitalization relative to placebo-treated subjects” value in series [6] is on record as “statistically significant reduction”. Also, the heart failure symptoms result on MR [7] (rats with cachexia-induced heart failure, 50 mg/Kg/day) was “able to prevent”. The “Effect on increase of plasma levels of lipocalin2/NGAL” value at MR [7] (rats with heart failure, 50 mg/Kg/j) is listed as “prevented”. At MR [7] (rats with heart failure, cardiac left ventricle, 50 mg/Kg/day, real time PCR), the “Effect on induction of cardiac lipocalin2/NGAL mRNA” value is reported as “fully prevented”. Also, the “incidence of clinically significant hyperkalemia” value in series [8] is reported as “about 10%”.
